Earlier results as cited in US20230210865A1, “MIDAZOLAM PREMIX FORMULATIONS AND USES THEREOF” (Baxter International, Inc., priority 2021, published 2023).
Where a name gives a salt, the structure may show the parent alone.

Cc1ncc2n1-c1ccc(Cl)cc1C(c1ccccc1F)=NC2 [Midazolam HCl, 8-chloro-6-(2-fluorophenyl)-1-methyl-4H-imidazo[1,5-a][1,4]benzodiazepine hydrochloride]
Onset time of sedative effects (after intramuscular administration in adults): about fifteen | Potency relative to diazepam (sedative agent, administered by injection): about twice
